Consider one compound from ChEMBL document CHEMBL1155247, “SAR and biological evaluation of SEN12333/WAY-317538: Novel alpha 7 nicotinic acetylcholine receptor agonist” (Bioorg Med Chem, 2009).

This test deals with Neuronal acetylcholine receptor subunit alpha-7 (Rattus norvegicus) (UniProt Q05941). Nature of the test: Selectivity for rat alpha7 nAChR over human alpha3 nAChR.

With `Cl.O=C(CCCCN1CCOCC1)Nc1ccc(-c2cccnc2)cc1`, the Selectivity ratio was 5.3.
